# Molecular target: T1, human P2Y12 receptor (Homo sapiens, UniProt Q9H244)
# T1 construct: expressed in transfected cells; host or cells: Chinese Hamster Ovary (CHO) cells
# Test: P2Y12 receptor binding assay
# Details: CHO cells with recombinant expression of the human P2Y12 receptor; tritium-labeled 2-methyl-S-ADP; 2 hours at RT
# Description: P2Y12 Receptor Binding Assay
# Chinese Hamster Ovary (CHO) cells with recombinant expression of the human P2Y12 receptor were cultured in 24 well cell-culture plates. Cells were washed three times with binding buffer (50 mM Tris pH 7.4, 100 mM NaCl, 1 mM EDTA, 0.5% BSA). The cells were then incubated with 0.5 mL per well binding buffer containing tritium-labeled 2-methyl-thio-adenosine 5′-diphosphate (2-methyl-S-ADP) (between 100,000 and 300,000 dpm per well) and various concentrations of test compounds. After incubation at RT for 2 hours, cells were washed three times with binding buffer. Then, cells were solubilized by addition of 0.5 mL solubilization buffer (SDS, NaOH, EDTA). The content of each well was then transferred into beta-counter vials and 2.0 ml of Ultima Gold Scintillation liquid was added.
# T1 sequence (Q9H244 whole entry): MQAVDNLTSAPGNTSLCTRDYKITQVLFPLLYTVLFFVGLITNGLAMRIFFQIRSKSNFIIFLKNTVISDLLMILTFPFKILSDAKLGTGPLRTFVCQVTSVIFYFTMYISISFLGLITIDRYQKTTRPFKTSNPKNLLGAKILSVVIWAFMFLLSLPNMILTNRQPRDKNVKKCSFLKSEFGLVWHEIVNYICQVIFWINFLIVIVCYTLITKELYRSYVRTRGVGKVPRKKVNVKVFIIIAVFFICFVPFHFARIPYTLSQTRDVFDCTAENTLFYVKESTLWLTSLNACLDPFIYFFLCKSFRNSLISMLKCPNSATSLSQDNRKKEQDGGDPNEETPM
row,Compound,IC50 [nM]
1,"CCCCOC(=O)N1CCN(C(=O)[C@@H](CCCP(=O)(O)O)NC(=O)c2cc(N3CC[C@H](OC)C3)cc(-c3ccccc3)n2)CC1 [Example 14, 4-((R)-2-{[4-((S)-3-methoxy-pyrrolidin-1-yl)-6-phenyl-pyridine-2-carbonyl]-amino}-5-phosphono-pentanoyl)-piperazine-1-carboxylic acid butyl ester]",30
2,"CCCCOC(=O)N1CCN(C(=O)[C@H](CP(=O)(O)O)NC(=O)c2cc([C@H]3C[C@@H]3CO)cc(-c3ccccc3)n2)CC1 [Example 20, 4-((R)-2-{[4-((1S,2S)-2-hydroxymethyl-cyclopropyl)-6-phenyl-pyridine-2-carbonyl]-amino}-3-phosphono-propionyl)-piperazine-1-carboxylic acid butyl ester]",5
3,"CCOC(=O)N1CCN(C(=O)[C@H](Cc2ccc(P(=O)(O)O)cc2)NC(=O)c2cc(N3CC[C@H](OC)C3)cc(-c3ccccc3)n2)CC1 [Example 24, 4-[(S)-2-{[4-((S)-3-methoxy-pyrrolidin-1-yl)-6-phenyl-pyridine-2-carbonyl]-amino}-3-(4-phosphono-phenyl)-propionyl]-piperazine-1-carboxylic acid ethyl ester]",1
4,"CCCCOC(=O)N1CCN(C(=O)[C@H](CP(=O)(OCOC(C)=O)OCOC(C)=O)NC(=O)c2cc(N3CC[C@H](OC)C3)cc(-c3ccccc3)n2)CC1 [Example 39, 4-((R)-3-(Bis-acetoxymethoxy-phosphoryl)-2-{[4-((S)-3-methoxy-pyrrolidin-1-yl)-6-phenyl-pyridine-2-carbonyl]-amino}-propionyl)-piperazine-1-carboxylic acid butyl ester]",3

# Continued by falling IC50, values first:
row,IC50 [nM],Compound
1,186,"CCCCOC(=O)N1CCN(C(=O)C(NC(=O)c2cc(N3CC[C@H](OC)C3)cc(-c3ccccc3)n2)P(=O)(O)O)CC1 (stereo partly drawn) [Example 12, 4-(-2-{[4-((S)-3-methoxy-pyrrolidin-1-yl)-6-phenyl-pyridine-2-carbonyl]-amino}-2-phosphono-acetyl)-piperazine-1-carboxylic acid butyl ester]"
2,19,"CCCCOC(=O)N1CCN(C(=O)[C@H](CP(=O)(O)O)NC(=O)c2cc(-c3ccccc3)cc(-c3ccc(F)cc3)n2)CC1 [Example 17, 4-((R)-2-{[6-(4-fluoro-phenyl)-4-phenyl-pyridine-2-carbonyl]-amino}-3-phosphono-propionyl)-piperazine-1-carboxylic acid butyl ester]"
3,4,"CCCCOC(=O)N1CCN(C(=O)[C@H](CP(=O)(O)O)NC(=O)c2cc(NC3CC3)cc(-c3ccccc3)n2)CC1 [Example 31, 4-{(R)-2-[(4-cyclopropylamino-6-phenyl-pyridine-2-carbonyl)-amino]-3-phosphono-propionyl}-piperazine-1-carboxylic acid butyl ester]"
4,2,"CCCCOC(=O)N1CCN(C(=O)[C@H](CP(=O)(O)O)NC(=O)c2cc(OCCOC)cc(-c3ccccc3)n2)CC1 [Example 36, 4-((R)-2-{[4-(2-methoxy-ethoxy)-6-phenyl-pyridine-2-carbonyl]-amino}-3-phosphono-propionyl)-piperazine-1-carboxylic acid butyl ester]"
